{"source": "patent US20250221976A1", "about": "“COMPOUNDS, COMPOSITIONS AND METHODS OF TREATING NEUROPATHIC PAIN” (THE UNIVERSITY OF HONG KONG, priority 2024, published 2025)", "key": {"[1]": {"system": "ROS level in DRG neurons", "assay": "ROS level in DRG neurons by DCFH-DA flow cytometry", "format": "in vivo, rat", "settings": "SNI rats, 50 μg/kg i.th, 3 h after administration, versus vehicle", "from_the_text": "(§1) The SNI surgery was constructed as previously described^16, 17. In brief, after animals were anesthetized by isoflurane (1.5-2.5%), a half centimeter incision was made in the middle of the outer. Muscles from the upper layer were bluntly dissected to expose the sciatic nerve and its branches to the left hind leg's common peroneal, tibial, and peroneal nerves. Then, the front two nerves were clipped, and the […]. In the sham-operated group, the sciatic nerve was only exposed, and no clipping or injury was done. After suturing the skin, animals were transferred to an observation box for recovery.\nIntrathecal administration of vehicle or drugs was conducted by direct lumbar puncture in the L5-L6 intervertebral space with a 30-gauge needle following the method of Mestre^18. […]\nROS level of DRG neurons were labeled by ROS Assay Kit (Beyotime Co., Ltd., China) and detected by flow cytometry according to the manufacturer's instructions. […] However, after entering the cell, DCFH-DA is hydrolyzed by cellular esterase to generate DCFH (2′,7′-dichlorodihydrofluorescein), which is non-permeable to the cell membrane, and can be oxidized by ROS into fluorescent DCF (2′,7′-dichlorofluorescein) that can be detected by flow cytometry. The fluorescence intensity represents the intracellular ROS levels."}, "[2]": {"system": "spared nerve injury (SNI) rat model", "assay": "Acetone test, cold allodynia in SNI rats", "format": "in vivo", "settings": "50 μg/kg/day intrathecally, from 14 days post injury", "from_the_text": "as §1\n(§2) Intrathecal administration of vehicle or drugs was conducted by direct lumbar puncture in the L5-L6 intervertebral space with a 30-gauge needle following the method of Mestre^18. This procedure was performed under isoflurane anesthesia to permit rapid recovery of the animals. The quality of each injection was ensured by the observation of an injection-induced tail-flick.\nAssessment of cold allodynia was using acetone test^20. Animals were placed in the assessment cage described above for habituation. Acetone was collected by pipette for each trial. […] As the acetone fast spread across the plantar skin and evaporated, noxious withdrawal responses of the hind paw (fluttering, licking, or hanging) against the cold stimuli was recorded. […]"}, "[3]": {"system": "voltage-gated sodium (NaV) channels", "assay": "Whole-cell voltage clamp of NaV currents in small diameter DRG neurons", "format": "cell-based, rat", "settings": "primary cultured small diameter (<30 μm) DRG neurons, 20 μM overnight", "method": "DRG neurons were obtained from rodents by acute isolation as previously described^21, 22. After animals were euthanized, the dorsal skin was removed to perform laminectomy to expose DRG, L4-L6 DRGs were rapidly collected from the intervertebral foramen. The collected DRGs were digested in 3 mL bicarbonate-free, serum-free, sterile DMEM (cat. no. 11965; Thermo Fisher Scientific) containing a mixture of enzymes (neutral protease, 3.125 mg/mL (cat. no. LS02104; Worthington) and collagenase Type I 5 mg/mL (cat. no. LS004194; Worthington)), incubated in a shaker at 37° C. […]\n(§3) Whole-cell voltage clamp recording was performed as previously described. […] Data were obtained by Patchmaster (HEKA) and analyzed with Fitmaster (HEKA). […]\n(§4) NaV currents were measured from rodent DRG small diameter (<30 μm) neurons. […] This process occurs between 0 and 10 mV and can be analyzed as a function of voltage, as inferred from the peak current density (normalized to the cell capacitance (picofarad, pF)); (ii) Inactivation protocol: starting from a clamp potential of −60 mV, a hyperpolarization/depolarization pulse of 1 second in the range of −120 to 20 mV, in steps of +10 mV for 1 second. […] The Boltzmann relevant factors, similar to half-maximal activation (V50) and slope, for the single fits to the data, are calculated, summarized, and compared among groups. […]"}, "[4]": {"system": "NRF2", "assay": "Immunoblot of NRF2 expression in L4-L6 DRG of SNI rats", "format": "in vivo, rat", "settings": "50 μg/kg, DRG collected 3 h after administration, versus vehicle", "from_the_text": "as §1, §2\nFor western blotting, L4-6 DRGs were extracted from the ipsilateral surgery of SNI rats and stored in liquid nitrogen to be set aside. DRGs were then sheared in pre-cooled potent RIPA lysate (containing protease and phosphatase inhibitors) and their whole cell lysates were obtained by ultrasonic crushing on ice. […] Immunoreactive bands were detected by chemiluminescence."}, "[5]": {"system": "spared nerve injury (SNI) rat model", "assay": "Von Frey test, mechanical allodynia in spared nerve injury (SNI) rats", "format": "in vivo", "settings": "50 μg/kg/day intrathecally, from 14 days post injury", "from_the_text": "as §1, §2\nAssessment of mechanical allodynia was using the Von Frey test as previously described^17. The animals were placed in plastic cages with metal mesh on the bottom and allowed to acclimatize for at least half an hour before each test. Each Von Frey wire was held perpendicular to the contact surface of the paw until it bent. […]"}, "[6]": {"system": "spared nerve injury (SNI) rat model", "assay": "Pin test, hyperalgesia in SNI rats", "format": "in vivo", "settings": "50 μg/kg/day intrathecally, from 14 days post injury", "from_the_text": "as §1, §2\nHyperalgesia was evaluated by pin test described previously^20. […] Normal response (brief flinch) or noxious-like response (sustained elevation of the paw with licking, shaking, or grooming) was recorded in 10 repeated trials with a minimum of 10 seconds' gap. Data was expressed as percentage of noxious-like response out of 10 trials."}, "[7]": {"biological_target": "T1, NaV1.7 (Homo sapiens, UniProt Q15858)", "T1 construct": "conflicts with the methods; host or cells: HEK293", "T1 sequence (Q15858 whole entry)": "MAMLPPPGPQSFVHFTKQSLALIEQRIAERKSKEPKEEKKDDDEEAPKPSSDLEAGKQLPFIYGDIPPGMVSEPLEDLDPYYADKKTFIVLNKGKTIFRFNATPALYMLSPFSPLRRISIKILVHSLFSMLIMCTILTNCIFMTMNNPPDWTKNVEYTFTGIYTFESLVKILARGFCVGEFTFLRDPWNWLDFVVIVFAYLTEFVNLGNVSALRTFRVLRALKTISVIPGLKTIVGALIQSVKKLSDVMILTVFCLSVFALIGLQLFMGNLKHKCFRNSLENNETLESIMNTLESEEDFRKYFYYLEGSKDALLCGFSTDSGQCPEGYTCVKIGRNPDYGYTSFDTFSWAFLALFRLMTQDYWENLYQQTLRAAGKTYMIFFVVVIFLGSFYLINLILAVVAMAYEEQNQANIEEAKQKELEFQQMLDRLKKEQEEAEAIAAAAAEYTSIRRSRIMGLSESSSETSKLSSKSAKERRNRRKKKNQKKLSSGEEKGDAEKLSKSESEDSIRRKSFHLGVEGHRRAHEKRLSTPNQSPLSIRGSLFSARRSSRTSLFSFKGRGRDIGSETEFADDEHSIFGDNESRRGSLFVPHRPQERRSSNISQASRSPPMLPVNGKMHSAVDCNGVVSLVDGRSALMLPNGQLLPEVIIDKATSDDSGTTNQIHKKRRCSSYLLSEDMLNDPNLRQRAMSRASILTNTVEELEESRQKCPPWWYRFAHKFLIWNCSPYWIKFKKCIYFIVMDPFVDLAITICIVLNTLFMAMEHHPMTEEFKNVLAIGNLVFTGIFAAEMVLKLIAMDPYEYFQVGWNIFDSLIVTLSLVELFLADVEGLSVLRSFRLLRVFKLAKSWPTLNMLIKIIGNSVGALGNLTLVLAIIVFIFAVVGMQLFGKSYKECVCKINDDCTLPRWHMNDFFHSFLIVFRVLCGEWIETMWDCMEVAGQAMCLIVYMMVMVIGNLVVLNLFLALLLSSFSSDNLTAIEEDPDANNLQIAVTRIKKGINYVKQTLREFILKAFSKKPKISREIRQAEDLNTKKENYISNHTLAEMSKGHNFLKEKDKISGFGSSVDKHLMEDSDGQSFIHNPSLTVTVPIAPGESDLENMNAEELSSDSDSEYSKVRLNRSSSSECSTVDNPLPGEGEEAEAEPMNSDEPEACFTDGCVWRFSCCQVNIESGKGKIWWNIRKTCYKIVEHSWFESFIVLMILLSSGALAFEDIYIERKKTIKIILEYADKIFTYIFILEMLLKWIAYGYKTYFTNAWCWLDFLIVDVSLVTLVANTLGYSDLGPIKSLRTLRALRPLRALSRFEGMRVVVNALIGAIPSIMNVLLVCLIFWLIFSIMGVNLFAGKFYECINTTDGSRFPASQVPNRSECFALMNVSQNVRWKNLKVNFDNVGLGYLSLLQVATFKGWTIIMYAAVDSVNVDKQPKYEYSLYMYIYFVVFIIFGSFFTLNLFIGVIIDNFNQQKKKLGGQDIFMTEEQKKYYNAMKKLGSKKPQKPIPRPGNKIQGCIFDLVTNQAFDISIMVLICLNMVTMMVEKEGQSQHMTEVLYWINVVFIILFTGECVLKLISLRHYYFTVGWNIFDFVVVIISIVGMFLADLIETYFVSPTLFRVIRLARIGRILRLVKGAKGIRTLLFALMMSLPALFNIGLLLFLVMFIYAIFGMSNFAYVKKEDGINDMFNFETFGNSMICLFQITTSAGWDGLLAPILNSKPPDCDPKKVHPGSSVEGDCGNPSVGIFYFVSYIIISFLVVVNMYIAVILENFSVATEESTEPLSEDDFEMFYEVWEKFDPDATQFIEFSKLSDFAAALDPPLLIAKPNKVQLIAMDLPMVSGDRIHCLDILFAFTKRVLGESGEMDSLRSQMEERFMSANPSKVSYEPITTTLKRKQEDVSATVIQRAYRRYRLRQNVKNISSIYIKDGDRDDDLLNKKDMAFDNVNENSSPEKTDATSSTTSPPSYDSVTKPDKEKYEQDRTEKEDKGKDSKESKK", "assay": "Whole-cell voltage clamp of NaV1.7 currents in transfected HEK293 cells", "format": "cell-based", "method": "HEK293 cells were purchased from Shanghai Institute of Biological Sciences, Chinese Academy of Sciences. HEK293 cells were cultured in medium (DMEM containing 10% fetal bovine serum and 1% penicillin/streptomycin) in an atmosphere of 5% CO2 at 37° C.\nThe NaV1.7 sequence was synthesized by GenScript (Nanjing, Jiangsu Province, China) and inserted into the pcDNA3.1 (+)-C-DYK plasmid between the BamH1 and EcoRI restriction sites. The empty plasmid of pcDNA3.1 purchased from Shenzhen Yanming Biotechnology Company was used as a mock transfection control. […]\nas §3, §4"}}}
{"smiles": "Cc1ccc(-c2noc(-c3ccc(F)c(F)c3)n2)cn1", "note": "[Compound 1, 5-(3,4-difluorophenyl)-3-(6-methylpyridin-3-yl)-1,2,4-oxadiazole]", "values": [{"measurement": "ROS level in DRG neurons (DCF staining)", "setting": "[1]", "value": "decreased"}, {"measurement": "max inhibiting rate in cold allodynia", "setting": "[2]", "value": "~35.0", "unit": "%"}, {"measurement": "inhibition of NaV currents", "setting": "[3]", "value": "significant inhibition of NaV currents"}, {"measurement": "expression level of NRF2 in L4-L6 DRG", "setting": "[4]", "value": "increased the expression level of NRF2"}, {"measurement": "max inhibiting rate in mechanical allodynia", "setting": "[5]", "value": "about 70.0%"}, {"measurement": "max inhibiting rate in hyperalgesia", "setting": "[6]", "value": "~37.5", "unit": "%"}, {"measurement": "inhibition of NaV1.7 current density under excessive oxidative stress", "setting": "[7]; HEK293 cells transfected with NaV1.7, pre-treated with H2O2 (500 μM, 20 min), then 20 μM overnight", "value": "Same inhibiting properties"}, {"measurement": "inhibition of NaV1.7 current density", "setting": "[7]; HEK293 cells transfected with NaV1.7 plasmid, 20 μM overnight", "value": "significantly inhibited NaV1.7 current density"}]}
